In patent US20170007615A1, “Antibacterial Compounds” (priority 2014, published 2017):
Converted amounts (≈) assume the structure as drawn.

How the values were obtained:
[1] = test system: N. gonorrheae (ATCC 49226); assay: Antibacterial activity (MIC), Gram-negative type strain; format: cell-based, Neisseria gonorrhoeae; details: Neisseria gonorrhoeae, ATCC49226; Table 13
[2] = test system: S. aureus (ATCC 29213); assay: Antibacterial activity (MIC), Gram-positive type strain; format: cell-based, Staphylococcus aureus; details: Staphylococcus aureus, ATCC29213; Table 13
[3] = test system: E. faecalis (ATCC 29212); assay: as above; format: cell-based, Enteroccocus faecalis; details: Enterococcus faecalis, ATCC29212; Table 13
[4] = test system: H. influenzae (ATCC 49247); assay: Antibacterial activity (MIC), Gram-negative type strain; format: cell-based, Haemophilus influenzae; details: Haemophilus influenzae, ATCC49247; Table 13

Row | Compound | MIC [1] [µg/mL] | MIC [2] [µg/mL] | MIC [3] [µg/mL] | MIC [4] [µg/mL]
1 | CCNC(=O)Nc1nc2cc(-c3cnc(NS(=O)(=O)CCN4CCOCC4)nc3)cc(-c3ccc(C)cn3)c2s1 [Compound A-52, N-(5-(2-(3-ethylureido)-7-(5-methylpyridin-2-yl)benzo[d]thiazol-5-yl)pyrimidin-2-yl)-2-morpholinoethanesulfonamide] | 0.03 (≈ 0.0515 µM) | 0.5 (≈ 0.858 µM) | 0.12 (≈ 0.206 µM) | 0.12 (≈ 0.206 µM)
2 | CCNC(=O)Nc1nc2cc(-c3cnc(NS(=O)(=O)N4CC[C@H](O)C4)nc3)cc(-c3ccc(C)cn3)c2s1 [Compound A-60, (S)—N-(5-(2-(3-ethylureido)-7-(5-methylpyridin-2-yl)benzo[d]thiazol-5-yl)pyrimidin-2-yl)-3-hydroxypyrrolidine-1-sulfonamide] | ≤ 0.008 | 0.12 (≈ 0.216 µM) | 0.06 (≈ 0.108 µM) | 0.03 (≈ 0.0541 µM)
3 | CCNC(=O)Nc1nc2cc(-c3cnc(NS(=O)(=O)C(C)C)nc3)cc(-c3ccc(C)cn3)c2s1 [Compound A-48, N-(5-(2-(3-ethylureido)-7-(5-methylpyridin-2-yl)benzo[d]thiazol-5-yl)pyrimidin-2-yl)propane-2-sulfonamide] | ≤ 0.008 | 0.015 (≈ 0.0293 µM) | ≤ 0.008 | 0.03 (≈ 0.0586 µM)
4 | CCNC(=O)Nc1nc2cc(-c3cnc(NS(=O)(=O)N4CCC(O)C4)nc3)cc(-c3ccc(C)cn3)c2s1 (stereo not shown) [Compound A-54, N-(5-(2-(3-ethylureido)-7-(5-methylpyridin-2-yl)benzo[d]thiazol-5-yl)pyrimidin-2-yl)-3-hydroxypyrrolidine-1-sulfonamide] | ≤ 0.008 | 0.12 (≈ 0.216 µM) | ≤ 0.008 | 0.03 (≈ 0.0541 µM)
5 | CCNC(=O)Nc1nc2cc(-c3cnc(NS(=O)(=O)N4CC[C@@H](N(C)C)C4)nc3)cc(-c3ccc(C)cn3)c2s1 [Compound A-57, (R)-3-(dimethylamino)-N-(5-(2-(3-ethylureido)-7-(5-methylpyridin-2-yl)benzo[d]thiazol-5-yl)pyrimidin-2-yl)pyrrolidine-1-sulfonamide] | 0.12 (≈ 0.206 µM) | 0.25 (≈ 0.43 µM) | 0.03 (≈ 0.0516 µM) | 0.5 (≈ 0.86 µM)
6 | CCNC(=O)Nc1nc2cc(-c3cnc(NS(=O)(=O)N4CCCC4)nc3)cc(-c3ccccn3)c2s1 [Compound A-45, N-(5-(2-(3-ethylureido)-7-(pyridin-2-yl)benzo[d]thiazol-5-yl)pyrimidin-2-yl)pyrrolidine-1-sulfonamide] | ≤ 0.008 | 0.015 (≈ 0.0286 µM) | ≤ 0.008 | 0.06 (≈ 0.114 µM)

Second part, the molecule after the results:

Row | MIC [1] [µg/mL] | MIC [2] [µg/mL] | MIC [3] [µg/mL] | MIC [4] [µg/mL] | Compound
7 | ≤ 0.008 | 0.06 (≈ 0.124 µM) | ≤ 0.008 | 0.008 (≈ 0.0165 µM) | CCNC(=O)Nc1nc2cc(-c3cnc(NS(C)(=O)=O)nc3)cc(-c3ccc(C)cn3)c2s1 [Compound A-30, N-(5-(2-(3-ethylureido)-7-(5-methylpyridin-2-yl)benzo[d]thiazol-5-yl)pyrimidin-2-yl)methanesulfonamide]
8 | ≤ 0.008 | 0.015 (≈ 0.0294 µM) | ≤ 0.008 | 0.015 (≈ 0.0294 µM) | CCNC(=O)Nc1nc2cc(-c3cnc(NS(=O)(=O)C4CC4)nc3)cc(-c3ccc(C)cn3)c2s1 [Compound A-40, N-(5-(2-(3-ethylureido)-7-(5-methylpyridin-2-yl)benzo[d]thiazol-5-yl)pyrimidin-2-yl)cyclopropanesulfonamide]
9 | ≤ 0.008 | 0.06 (≈ 0.12 µM) | ≤ 0.008 | 0.03 (≈ 0.0602 µM) | CCNC(=O)Nc1nc2cc(-c3cnc(NS(=O)(=O)NC)nc3)cc(-c3ccc(C)cn3)c2s1 [Compound A-42, 1-ethyl-3-[7-(5-methyl-2-pyridyl)-5-[2-(methylsulfamoylamino)pyrimidin-5-yl]-1,3-benzothiazol-2-yl]urea]
10 | 0.03 (≈ 0.0589 µM) | 0.03 (≈ 0.0589 µM) | 0.015 (≈ 0.0294 µM) | 0.12 (≈ 0.235 µM) | CCNC(=O)Nc1nc2cc(-c3cnc(N4CCCS4(=O)=O)nc3)cc(-c3ccc(C)cn3)c2s1 [Compound A-28, 1-(5-(2-(1,1-dioxidoisothiazolidin-2-yl)pyrimidin-5-yl)-7-(5-methylpyridin-2-yl)benzo[d]thiazol-2-yl)-3-ethylurea]
